pIC50: −log10 of the molar value. Entries after “also recorded” stand apart in the source; their conditions may differ. Structures can show the parent of a compound that is named as a salt. Where two headings read alike, the source gives them in different places.
Key:
[1] = molecular target: T1, recombinant human ACE2 (rhACE2) (Homo sapiens, UniProt Q9BYF1); test: ACE2 exopeptidase inhibitor screening assay (fluorogenic substrate), AMB and BHH; format: biochemical
T1 construct: purchased BPS Bioscience 79923
T1 sequence (Q9BYF1 18-805): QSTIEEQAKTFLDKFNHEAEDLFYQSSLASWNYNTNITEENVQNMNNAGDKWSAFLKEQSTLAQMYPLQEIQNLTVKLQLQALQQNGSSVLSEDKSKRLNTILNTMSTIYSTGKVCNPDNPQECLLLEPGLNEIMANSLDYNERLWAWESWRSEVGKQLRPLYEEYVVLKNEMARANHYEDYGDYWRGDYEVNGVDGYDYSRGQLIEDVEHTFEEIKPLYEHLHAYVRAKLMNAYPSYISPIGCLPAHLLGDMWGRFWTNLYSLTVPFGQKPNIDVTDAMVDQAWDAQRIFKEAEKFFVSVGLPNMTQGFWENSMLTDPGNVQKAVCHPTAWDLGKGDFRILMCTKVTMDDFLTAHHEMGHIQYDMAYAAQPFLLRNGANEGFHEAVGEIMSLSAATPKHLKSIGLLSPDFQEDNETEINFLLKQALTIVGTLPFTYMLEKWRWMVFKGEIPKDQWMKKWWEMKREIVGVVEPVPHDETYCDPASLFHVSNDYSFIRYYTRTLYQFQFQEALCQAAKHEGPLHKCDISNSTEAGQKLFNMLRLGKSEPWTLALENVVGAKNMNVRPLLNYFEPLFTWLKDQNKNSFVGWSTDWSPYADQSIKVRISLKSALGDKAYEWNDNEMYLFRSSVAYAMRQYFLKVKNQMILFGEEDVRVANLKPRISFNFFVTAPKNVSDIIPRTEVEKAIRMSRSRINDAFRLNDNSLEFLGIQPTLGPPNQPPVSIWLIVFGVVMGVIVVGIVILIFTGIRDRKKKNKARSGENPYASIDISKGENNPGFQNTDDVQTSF
Procedure: ACE2 Inhibitor Screening Assay. An ACE2 exopeptidase Inhibitor screening assay kit with the fluorogenic substrate (Catalogue #79923) was purchased from BPS Bioscience (San Diego, CA) and modified to measure the exopeptidase activity of ACE2 in the presence and absence of inhibitors (BPSBioscience, 2022). Following the manufacturer's directions, the fluorescence assay was carried out in a 96-well black flat-bottom plate with a final reaction volume of 50 μL. 50 mM stock solutions of BHH and AMB in 100% DMSO were prepared. Compounds were serially diluted in DMSO as follows: 500, 250, 100, 50, 10, 1, 0.1 μM. All experiments were done in triplicates and repeated twice. A positive control of enzyme treated with vehicle alone (2 percent DMSO) and a blank control with no enzyme were included on each plate.
Each reaction had 24 μL of purified recombinant human ACE2 protein (0.42 ng/L) in ACE2 buffer, 1 μL of the compound at different concentrations, and 25 μL ACE2 fluorogenic substrate. The final volume of the reaction was 50 μL. The reaction mixtures were incubated for 1 hr at room temperature (22° C.) and protected from light. After that, the fluorescence intensities (λExcitation=535 nm, λEmission=595 nm) were measured using a Spectramax iD3 multimode plate reader. The background hydrolysis was subtracted, and the data were fitted to a four-parameter logistic (variable slope) equation using GraphPad prism software 9.1.

[2] = tested on: SARS-CoV-2 spike pseudotyped lentivirus; test: microbe, parasite or virus in culture; format: cell-based; settings: for Percent Inhibition of fusion of SARS-CoV-2 spike pseudotyped lentivirus with HEK293-ACE2 cells: hydrochloride
[3] = molecular target: T2, rhACE2 and SARS-CoV-2 Spike (RBD) protein interaction (Homo sapiens, UniProt Q9BYF1); test: Spike (RBD)-ACE2 binding assay (ELISA); design: species or system human; SARS-CoV-2; settings: for pIC50: bell-shaped model, AMB, BHH
T2 construct: purchased RayBiotech CoV-SACE2-1
T2 sequence (Q9BYF1 18-740): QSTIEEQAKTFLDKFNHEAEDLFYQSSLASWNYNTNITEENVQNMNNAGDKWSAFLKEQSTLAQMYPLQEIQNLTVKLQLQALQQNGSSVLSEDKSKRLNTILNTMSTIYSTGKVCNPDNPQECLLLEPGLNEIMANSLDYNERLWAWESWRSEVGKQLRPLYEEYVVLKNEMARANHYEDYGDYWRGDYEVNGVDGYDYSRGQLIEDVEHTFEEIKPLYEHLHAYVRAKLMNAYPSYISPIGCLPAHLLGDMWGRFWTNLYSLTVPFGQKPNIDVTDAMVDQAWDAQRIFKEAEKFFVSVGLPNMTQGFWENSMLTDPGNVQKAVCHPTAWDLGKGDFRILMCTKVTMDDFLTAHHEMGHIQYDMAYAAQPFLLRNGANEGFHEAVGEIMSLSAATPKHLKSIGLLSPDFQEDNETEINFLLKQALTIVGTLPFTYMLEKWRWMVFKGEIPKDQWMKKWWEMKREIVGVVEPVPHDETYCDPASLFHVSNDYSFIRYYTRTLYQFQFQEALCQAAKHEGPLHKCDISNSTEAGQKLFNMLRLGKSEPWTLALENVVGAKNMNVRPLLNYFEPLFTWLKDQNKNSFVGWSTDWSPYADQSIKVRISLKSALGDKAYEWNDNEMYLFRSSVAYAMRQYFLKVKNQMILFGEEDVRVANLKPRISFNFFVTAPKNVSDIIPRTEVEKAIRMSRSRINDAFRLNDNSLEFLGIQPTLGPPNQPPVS

[4] = molecular target: T3, ACE1 (Homo sapiens, UniProt P12821); test: ACE1 activity assay (colorimetric); format: biochemical; settings: hydrochloride
T3 construct: purchased Sigma-Aldrich MAK422
T3 sequence (P12821 30-1306): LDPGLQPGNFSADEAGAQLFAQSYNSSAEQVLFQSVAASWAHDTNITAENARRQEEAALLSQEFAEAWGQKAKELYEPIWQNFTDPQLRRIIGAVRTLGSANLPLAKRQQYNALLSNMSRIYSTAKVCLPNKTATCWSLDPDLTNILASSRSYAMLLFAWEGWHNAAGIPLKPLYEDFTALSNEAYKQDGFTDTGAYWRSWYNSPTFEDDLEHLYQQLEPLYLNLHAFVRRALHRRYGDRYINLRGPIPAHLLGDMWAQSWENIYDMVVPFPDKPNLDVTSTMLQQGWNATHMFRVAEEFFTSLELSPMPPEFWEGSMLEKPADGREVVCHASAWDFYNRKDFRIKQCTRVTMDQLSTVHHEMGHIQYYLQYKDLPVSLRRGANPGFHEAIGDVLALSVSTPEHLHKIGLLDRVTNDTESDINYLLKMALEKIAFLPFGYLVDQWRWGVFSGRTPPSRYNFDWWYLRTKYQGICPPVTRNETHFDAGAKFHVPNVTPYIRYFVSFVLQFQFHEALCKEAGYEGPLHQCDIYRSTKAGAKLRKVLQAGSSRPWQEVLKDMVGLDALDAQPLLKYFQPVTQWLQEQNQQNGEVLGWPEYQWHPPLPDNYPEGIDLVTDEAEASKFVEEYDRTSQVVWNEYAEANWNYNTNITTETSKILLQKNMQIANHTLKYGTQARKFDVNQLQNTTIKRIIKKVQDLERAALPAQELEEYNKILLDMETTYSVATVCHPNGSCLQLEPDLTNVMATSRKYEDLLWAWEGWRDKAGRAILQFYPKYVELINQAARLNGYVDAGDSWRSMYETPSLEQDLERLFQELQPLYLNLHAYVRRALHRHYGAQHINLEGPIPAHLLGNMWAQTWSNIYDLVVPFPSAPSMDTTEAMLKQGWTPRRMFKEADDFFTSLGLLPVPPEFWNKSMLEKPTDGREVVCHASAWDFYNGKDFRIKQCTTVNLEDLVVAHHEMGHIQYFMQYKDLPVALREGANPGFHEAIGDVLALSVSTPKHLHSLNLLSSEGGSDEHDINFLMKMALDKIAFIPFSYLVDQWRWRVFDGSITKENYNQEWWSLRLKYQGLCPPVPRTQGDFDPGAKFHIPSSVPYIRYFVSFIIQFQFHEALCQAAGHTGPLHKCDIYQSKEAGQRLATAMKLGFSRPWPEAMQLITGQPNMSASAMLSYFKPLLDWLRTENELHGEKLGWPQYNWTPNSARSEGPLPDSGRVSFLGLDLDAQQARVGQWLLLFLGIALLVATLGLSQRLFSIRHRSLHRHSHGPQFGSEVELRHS
Procedure: ACE1 Activity Assay. ACE1 Inhibitor Screening Kit (Cat #MAK422) was purchased from Sigma-Aldrich (St. Louis, MO) and adapted to determine the effect of BHH and AMB on the enzymatic activity of ACE (Aldrich, 2022). The in vitro colorimetric assay was performed in a transparent flat-bottom 96-well plate. 50 mm and 10 mm solutions of Captropil, a known ACE1 inhibitor were used as a positive inhibitor control. Stock solutions of the compounds were prepared in 100% Dimethyl sulfoxide (DMSO) and further serially diluted in DMSO as follows: 500, 100, 50,10,5,1 and 0.5 μm for AMB and the positive control Captropil. All experiments were performed in quadruplicates. Each plate contained positive controls (1% DMSO) and blank controls with no ACE1 enzyme. Specifically, 2.5 μl of serially diluted compounds were pre-incubated with 2 μl of ACE1 protein diluted in 38 μl of 1× assay diluent buffer for about 15 mins, at room temperature (22° C.). 157.5 μl of 1×ACE1 assay buffer (197.5 μl for −ve control) was added into the 96 well plates. The solution was mixed well and incubated at 37° C. for 15-20 minutes, protected from light. After that, 40 μl of the substrate was added to each well and mixed well. The absorbance was measured immediately at 345 nm (A345) in kinetic mode for 60 minutes.

[5] = tested on: Vero E6 cells; settings: Vero E6; at 30 μM; Example B
[6] = tested on: SARS-CoV-2 USA_WA1/2020; settings: hamster
[7] = in vitro; settings: African green monkey

CN(Cc1cc(Br)cc(Br)c1N)C1CCCCC1 [BHH, Bromhexine hydrochloride]
ACE2 Exopeptidase Activity: Percent Activity ([1]; 0.1 uM): 111.3% | inhibition at 0.1 µM ([1]; 0.1 uM, read-out: ACE2 Exopeptidase Activity: Percent Inhibition): -11.3% | ACE2 Exopeptidase Activity: Percent Activity ([1]; 1 uM): 114.7% | inhibition at 1 µM ([1]; 1 uM, read-out: ACE2 Exopeptidase Activity: Percent Inhibition): -14.7% | ACE2 Exopeptidase Activity: Percent Activity ([1]; 10 uM): 104.6% | inhibition at 10 µM ([1]; 10 uM, read-out: ACE2 Exopeptidase Activity: Percent Inhibition): -4.6% | ACE2 Exopeptidase Activity: Percent Activity ([1]; 50 uM): 2.7% | inhibition at 50 µM ([1]; 50 uM, read-out: ACE2 Exopeptidase Activity: Percent Inhibition): 97.3% | ACE2 Exopeptidase Activity: Percent Activity ([1]; 100 uM): −6.2% | inhibition at 100 µM ([1]; 100 uM, read-out: ACE2 Exopeptidase Activity: Percent Inhibition): 106% | ACE2 Exopeptidase Activity: Percent Activity ([1]; 250 uM): −6.7% | inhibition at 250 µM ([1]; 250 uM, read-out: ACE2 Exopeptidase Activity: Percent Inhibition): 107% | ACE2 Exopeptidase Activity: Percent Activity ([1]; 500 uM): −6.6% | inhibition at 500 µM ([1]; 500 uM, read-out: ACE2 Exopeptidase Activity: Percent Inhibition): 107% | pIC50 ([1]; read-out: IC50, exopeptidase function of ACE2): 4.59 | effect on exopeptidase activity of rhACE2 ([1]; tested 0.1 to 500 μM, hydrochloride): completely inhibited | Percent Inhibition of fusion of SARS-CoV-2 spike pseudotyped lentivirus with HEK293-ACE2 cells ([2]; 50 μM, Table 3): 61% | Percent Inhibition of fusion of SARS-CoV-2 spike pseudotyped lentivirus with HEK293-ACE2 cells ([2]; 100 μM, Table 3): 76% | inhibition at 50 µM ([2]; Severe acute respiratory syndrome coronavirus 2, 50 μM, Table 3, read-out: Percent Inhibition of fusion of SARS-CoV-2 spike pseudotyped lentivirus with HEK293-ACE2 cells): 57% | inhibition at 100 µM ([2]; Severe acute respiratory syndrome coronavirus 2, 100 μM, Table 3, read-out: Percent Inhibition of fusion of SARS-CoV-2 spike pseudotyped lentivirus with HEK293-ACE2 cells): 73% | inhibition at 10 µM ([2]; Severe acute respiratory syndrome coronavirus 2, HEK293, 10 μM, Table 2, read-out: Percent (%) Inhibition of Pseudo virus Entry in HEK293 Kidney Cells, SARS-COV-2): 50% | inhibition at 100 µM ([2]; Severe acute respiratory syndrome coronavirus 2, HEK293, 100 μM, Table 2, read-out: Percent (%) Inhibition of Pseudo virus Entry in HEK293 Kidney Cells, SARS-COV-2): ≤ 100% | effect on Spike (RBD)-rhACE2 interaction ([3]; 100 μM to 100 nM, hydrochloride): enhanced the interaction at higher concentrations; also recorded: increased the binding of ACE2 and RBD at high concentrations of 100 and 50 μM but blocked the interaction at low concentrations | pIC50 ([3]; highest tested 100 μM, read-out: Estimated Relative IC50 against rhACE2 and RBD Interaction Assay, IC50_2): 4.37 | pIC50 ([3]; read-out: Estimated Relative IC50 against rhACE2 and RBD Interaction Assay, IC50_1): 5.92 | effect on exopeptidase activity of ACE [4]: inhibited; also recorded: showed activity against ACE1 | percent minimum viability [5]: 103.87% | Overall Gmean Days 1-4, N2 gRNA, rectal swabs [6]: 1.00E+05 copies/swab | Overall Gmean Days 1-4 higher than Group 3, N2 gRNA, rectal swabs [6]: 2 fold | Peak viral load versus Group 3, N2 gRNA, rectal swabs [6]: similar | SARS-CoV-2 genome load, N2 gRNA, lungs ([6]; Day 4): 6.20E+09 copies/gram | SARS-CoV-2 genome load, N2 gRNA, trachea ([6]; Day 4): 1.21E+09 copies/gram | active replication load higher than Group 3, E sgRNA, lungs ([6]; Day 4): 3 fold | active replication load, E sgRNA, lungs ([6]; Day 4): 4.41E+07 copies/gram | active replication load, E sgRNA, nasal turbinate ([6]; Day 4): 1.67E+08 copies/gram | active replication load, E sgRNA, trachea ([6]; Day 4): 2.58E+06 copies/gram | genome load higher than Group 3, N2 gRNA, lungs ([6]; Day 4): 3 fold | replication load higher than Group 3, E sgRNA, trachea ([6]; Day 4): 2 fold | viral load higher than Group 3, N2 gRNA, trachea ([6]; Day 4): 2 fold | serum IL-6 levels versus Group 3 ([6]; Day 4, ELISA, P<0.05): significantly lower | serum TNF-α versus Group 3 ([6]; Day −1, Day 2 (P<0.05), Day 4 (P<0.001)): significantly low | serum IL-10 levels between groups ([6]; Days −1, 2, 4): No significance difference | incidence and severity of microscopic lesions versus vehicle control ([6]; lung histopathology): similar | lung viral load by TCID50 assay versus vehicle control ([6]; lung samples Day 4): No difference | SARS-CoV-2 genome load, N2 gRNA, nasal turbinate ([6]; necropsy Day 4): 3.57E+10 copies/gram | gross lesions in the lung ([6]; necropsy Day 4): reduced gross lesions in the lung | Overall Gmean Days 1-4, E sgRNA, pharyngeal swabs ([6]; AMB 500, BHH 200 mg/kg/day PO): 4.82E+04 copies/swab | Overall Gmean Days 1-4 lower than Group 3, E sgRNA, pharyngeal swabs ([6]; AMB 500, BHH 200 mg/kg/day PO): 2 fold | Overall Gmean Days 1-4 viral load lower than Group 3, N2 gRNA, pharyngeal swabs ([6]; AMB 500, BHH 200 mg/kg/day PO): 2 fold | Overall Gmean viral load Days 1-4, N2 gRNA, pharyngeal swabs ([6]; AMB 500, BHH 200 mg/kg/day PO): 4.93E+07 copies/swab | Peak viral load lower than vehicle (Group 3), N2 gRNA, pharyngeal swabs ([6]; AMB 500, BHH 200 mg/kg/day PO): 3 fold | Peak viral replication load lower than Group 3, E sgRNA, pharyngeal swabs ([6]; AMB 500, BHH 200 mg/kg/day PO): 4 fold | tolerability of administered doses ([6]; AMB 500, BHH 200 mg/kg/day PO, up to 5 days): tolerated the administered doses well | Peak viral load, N2 gRNA, pharyngeal swabs ([6]; AMB 500, BHH 200 mg/kg/day PO, peak Day 2 (AMB), Day 1 (BHH)): 4.93E+07 copies/swab | Peak viral replication load, E sgRNA, rectal swabs ([6]; peak Day 1 (AMB), Day 2 (BHH)): 4.29 copies/swab | Peak viral replication load, E sgRNA, pharyngeal swabs ([6]; peak Day 2 (AMB), Day 1 (BHH)): 2.65E+05 copies/swab | Peak viral load, N2 gRNA, rectal swabs ([6]; peak on Day 2): 1.54E+05 copies/swab | CC50 at 72 h ([7]; 50% cytotoxic concentration (CC50), Vero E6, 72 hours, Examples A and B, highest concentration 30 μM): > 30 µM | CC50 at 72 h ([7]; Cytotoxicity CC50, Vero E6, 72 hours, Example C (Table 4)): 58.3 µM

From patent US20240285552A1 (priority 2020, published 2024)
